Key:
PTPN2 enzyme = biological target: T1, PTPN2 enzyme (Homo sapiens, UniProt P17706); experiment: PhosphoSens PTPN2 biochemical assay; settings: substrate AQT0264 20 μM, room temperature; read-out: PTPN2 BCHEM IC50
T1 sequence (P17706 1-415): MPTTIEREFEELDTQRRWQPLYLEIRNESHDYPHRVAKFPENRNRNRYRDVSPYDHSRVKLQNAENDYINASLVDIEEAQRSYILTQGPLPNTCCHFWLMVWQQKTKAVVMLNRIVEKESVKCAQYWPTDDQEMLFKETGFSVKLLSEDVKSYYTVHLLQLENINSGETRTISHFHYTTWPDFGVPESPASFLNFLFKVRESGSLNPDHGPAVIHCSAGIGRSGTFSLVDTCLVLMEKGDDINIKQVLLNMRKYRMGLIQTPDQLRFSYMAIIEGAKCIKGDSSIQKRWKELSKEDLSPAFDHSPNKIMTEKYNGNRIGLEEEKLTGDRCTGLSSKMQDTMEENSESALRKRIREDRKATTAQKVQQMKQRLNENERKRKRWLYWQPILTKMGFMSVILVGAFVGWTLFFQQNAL
How it was run: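 PhosphoSens fluorescence format with 20 μM final AQT0264 substrate and […] in 50 mM HEPES pH 7.5, 500 μM EGTA, […], 0.01% Brij-35, 1% glycerol, 1 mM DTT, 0.2 mg/mL BSA. Compounds in 3-fold dilution series; progress curves read (ex 360/em 480 nm) every 71 s for 1 h at room temperature.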

[1] = system: phosphorylated STAT1 protein levels in B16-F10 cells; experiment: Phospho-STAT1 (Tyr701) HTRF assay in IFN-gamma treated B16-F10 cells; assay type: cell-based; settings: mouse IFN-gamma 100 ng/mL, 1 hour, read-out: pSTAT1 HTRF B16 EC50
How it was run: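 Mouse B16-F10 cells, 10,000/well, pretreated 1 h with compound (0.15% DMSO), then stimulated with mouse IFN-gamma at 100 ng/mL final for 1 h at 37 C. Phospho-STAT1 (Tyr701) measured by HTRF.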

B16-F10 cells = experiment: Cell proliferation assay (CellTiter-Glo) in IFN-gamma treated B16-F10 cells; assay type: cell-based; settings: 120 h, mouse IFN-gamma 10 ng/mL, read-out: PTPN2 Prolif 5d B16F10 EC50

| Structure (SMILES) | IC50 (PTPN2 enzyme) [nM] | EC50 [1] [µM] | EC50 (B16-F10 cells) [µM] |
| --- | --- | --- | --- |
| COCCN1CCN(Cc2cc(O)c(N3CC(=O)NS3(=O)=O)c(F)c2)CC1 [EXAMPLE 44, 5-(2-fluoro-6-hydroxy-4-((4-(2-methoxyethyl)piperazin-1-yl)methyl)phenyl)-1,2,5-thiadiazolidin-3-one 1,1-dioxide] | 131 | ≥ 15 | ≥ 15 |
| O=C1CN(c2c(O)cc(CN[C@@H]3CCCOC3)cc2F)S(=O)(=O)N1 [EXAMPLE 64, (R)-5-(2-fluoro-6-hydroxy-4-(((tetrahydro-2H-pyran-3-yl)amino)methyl)phenyl)-1,2,5-thiadiazolidin-3-one 1,1-dioxide] | 139 | 2.18 | 2.72 |
| O=C1CN(c2c(O)cc(-c3cccnc3)cc2F)S(=O)(=O)N1 [EXAMPLE 8, 5-(2-fluoro-6-hydroxy-4-(pyridin-3-yl)phenyl)-1,2,5-thiadiazolidin-3-one 1,1-dioxide] | 199 | 2.43 | ≥ 15 |
| O=C1CN(c2c(O)cc(CNC3CCNCC3)cc2F)S(=O)(=O)N1 [EXAMPLE 39, 5-(2-fluoro-6-hydroxy-4-((piperidin-4-ylamino)methyl)phenyl)-1,2,5-thiadiazolidin-3-one 1,1-dioxide] | 86 | ≥ 15 | ≥ 15 |
| O=C1CN(c2c(O)cc(-c3ccc(-c4ccccc4)nc3)cc2F)S(=O)(=O)N1 [EXAMPLE 30, 5-[2-fluoro-6-hydroxy-4-(6-phenyl-3-pyridyl)phenyl]-1,1-dioxo-1,2,5-thiadiazolidin-3-one] | 148 | ≥ 15 | ≥ 15 |
| O=C1CN(c2c(O)cc(CN[C@H]3CCCN(S(=O)(=O)C4CC4)C3)cc2F)S(=O)(=O)N1 [EXAMPLE 73, 5-[4-[[[(3S)-1-cyclopropylsulfonyl-3-piperidyl]amino]methyl]-2-fluoro-6-hydroxy-phenyl]-1,1-dioxo-1,2,5-thiadiazolidin-3-one] | 10 | 7.8 | 9.84 |

Next, values leading:

| IC50 (PTPN2 enzyme) [nM] | EC50 [1] [µM] | EC50 (B16-F10 cells) [µM] | Structure (SMILES) |
| --- | --- | --- | --- |
| 131 | 2.34 | 3.26 | CCN1CCC(NCc2cc(O)c(N3CC(=O)NS3(=O)=O)c(F)c2)CC1 [EXAMPLE 40, 5-(4-(((1-ethylpiperidin-4-yl)amino)methyl)-2-fluoro-6-hydroxyphenyl)-1,2,5-thiadiazolidin-3-one 1,1-dioxide] |
| 114 | 4.61 | 6.94 | O=C1CN(c2c(O)cc(CN3CCC(O)CC3)cc2F)S(=O)(=O)N1 [EXAMPLE 52, 5-[2-fluoro-6-hydroxy-4-[(4-hydroxy-1-piperidyl)methyl]phenyl]-1,1-dioxo-1,2,5-thiadiazolidin-3-one] |
| 745 | ≥ 15 | ≥ 15 | NC1CCN(c2cc(O)c(N3CC(=O)NS3(=O)=O)c(F)c2)CC1 [EXAMPLE 84, 5-(4-(4-aminopiperidin-1-yl)-2-fluoro-6-hydroxyphenyl)-1,2,5-thiadiazolidin-3-one 1,1-dioxide] |
| 807 | ≥ 15 | ≥ 15 | CN1CCC(c2cc(O)c(N3CC(=O)NS3(=O)=O)c(F)c2)CC1 [EXAMPLE 4, 5-[2-fluoro-6-hydroxy-4-(1-methyl-4-piperidyl)phenyl]-1,1-dioxo-1,2,5-thiadiazolidin-3-one] |
| 90 | 1.74 | 1.72 | O=C1CN(c2c(O)cc(CNC3CCCCC3)cc2F)S(=O)(=O)N1 [EXAMPLE 34, 5-[4-[(cyclohexylamino)methyl]-2-fluoro-6-hydroxy-phenyl]-1,1-dioxo-1,2,5-thiadiazolidin-3-one] |
| 121 | 4.98 | 2.56 | O=C1CN(c2c(O)cc(CN[C@@H]3CCCNC3)cc2F)S(=O)(=O)N1 [EXAMPLE 61, (R)-5-(2-fluoro-6-hydroxy-4-((piperidin-3-ylamino)methyl)phenyl)-1,2,5-thiadiazolidin-3-one 1,1-dioxide] |
